Results reported in ChEMBL document CHEMBL3259709, “Quinoline Derivatives as 5-HT6 Receptor PET Ligands” (ACS Med Chem Lett, 2014).
Each block holds one compound with its values, some of them ahead of it.

What was measured:
[1] = Plasma concentration in rat at 0.05 mg/kg, iv after 5 mins; type: ADME, organism-based; set-up: dose 0.05 mg/kg, route intravenous
[2] = Plasma concentration in rat at 0.05 mg/kg, iv after 3 mins; type: ADME, organism-based; set-up: dose 0.05 mg/kg, route intravenous
[3] = Ratio of free drug level from brain to plasma concentration in rat at 0.05 mg/kg, iv after 3 mins; type: ADME, organism-based; set-up: dose 0.05 mg/kg, route intravenous; conditions: read-out: BPR
[4] = Ratio of free drug level from brain to plasma concentration in rat at 0.05 mg/kg, iv after 5 mins; type: ADME, organism-based; set-up: dose 0.05 mg/kg, route intravenous; conditions: read-out: BPR
[5] = test system: Nucleic Acid; assay: Ratio of drug level from cortex to cerebellum in rat at 0.05 mg/kg, iv after 5 mins; type: ADME, organism-based; set-up: dose 0.05 mg/kg, route intravenous; conditions: in vivo
[6] = test system: Nucleic Acid; assay: Ratio of drug level from hippocampus to cerebellum in rat at 0.05 mg/kg, iv after 5 mins; type: ADME, organism-based; set-up: dose 0.05 mg/kg, route intravenous; conditions: in vivo
[7] = test system: Nucleic Acid; assay: Ratio of drug level from cortex to cerebellum in rat at 0.05 mg/kg, iv after 40 mins; type: ADME, organism-based; set-up: dose 0.05 mg/kg, route intravenous; conditions: in vivo
[8] = test system: Nucleic Acid; assay: Ratio of drug level from striatum to cerebellum in rat brain at 0.05 mg/kg, iv after 5 mins; type: ADME, organism-based; set-up: dose 0.05 mg/kg, route intravenous; conditions: in vivo
[9] = test system: Nucleic Acid; assay: Ratio of drug level from hippocampus to cerebellum in rat at 0.05 mg/kg, iv after 40 mins; type: ADME, organism-based; set-up: dose 0.05 mg/kg, route intravenous; conditions: in vivo
[10] = test system: Nucleic Acid; assay: Ratio of drug level from striatum to cerebellum in rat brain at 0.05 mg/kg, iv after 40 mins; type: ADME, organism-based; set-up: dose 0.05 mg/kg, route intravenous; conditions: in vivo
[11] = target: 5-hydroxytryptamine receptor 2A (Homo sapiens, UniProt P28223); assay: Displacement of [125I]-R-O-DOI from human 5-HT2A receptor expressed in CHO-K1 cells by liquid scintillation spectrometry; type: cell-based
5-hydroxytryptamine receptor 2A, sequence (P28223 whole entry): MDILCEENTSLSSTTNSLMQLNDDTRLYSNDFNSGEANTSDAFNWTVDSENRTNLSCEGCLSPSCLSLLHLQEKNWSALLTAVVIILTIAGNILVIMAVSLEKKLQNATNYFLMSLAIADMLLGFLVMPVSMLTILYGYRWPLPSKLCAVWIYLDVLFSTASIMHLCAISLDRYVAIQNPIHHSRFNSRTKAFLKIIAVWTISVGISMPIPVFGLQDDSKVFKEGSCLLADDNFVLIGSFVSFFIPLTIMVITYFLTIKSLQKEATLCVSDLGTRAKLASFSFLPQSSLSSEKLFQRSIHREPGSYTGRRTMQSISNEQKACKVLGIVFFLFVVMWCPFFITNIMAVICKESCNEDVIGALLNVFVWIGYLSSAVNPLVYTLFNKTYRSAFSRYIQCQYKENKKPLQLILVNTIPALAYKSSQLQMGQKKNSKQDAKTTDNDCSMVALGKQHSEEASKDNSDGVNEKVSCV

- concentration at 5 min [1]: 83.5 ng/mL
- concentration at 0.05 h [2]: 104 ng/mL
- Kp uu at 0.05 h [3]: 0.21
- Kp uu at 5 min [4]: 0.28
SMILES: CN1CCC(c2cccc3cc(S(=O)(=O)c4ccccn4)cnc23)CC1

- Ratio [5]: 0.9
- Ratio [6]: 1.06
- Ratio [7]: 1.2
- Ratio [8]: 0.81
- Ratio [9]: 1.07
- Ratio [10]: 1.31
SMILES: [3H]C([3H])([3H])N1CCC(c2cccc3cc(S(=O)(=O)c4ccccn4)cnc23)CC1

- Ki [11]: 0.39 nM
SMILES: CN1CCN(c2cccc3cc(S(=O)(=O)c4cccc(F)c4)cnc23)CC1
